# From patent US8912142B2, “Method of regulating proliferation and differentiation of keratinocyes” (The Medical Research, Infrastructure and Health Services …, priority 2009, dated 2014)
# d = 2'-deoxy (DNA); r = 2'-OH (RNA)
# Assays:
# [1] = test system: primary keratinocytes transfected with IGFBP7 siRNA; experiment: ERK inhibition, proliferation of IGFBP7-silenced primary keratinocytes; assay type: cell-based, human; settings: 120 μM for 72 hours, medium refreshed every 24 hours
# Experimental: FIG. 17 is a histogram depicting the effect of ERK inhibition on primary keratinocytes proliferation in IFGBP7-silenced cells and control cells. Primary keratinocytes which were transfected with IGFBP7 siRNA were treated with 120 μM PD98059 (ERK inhibitor) for 72 hours, while refreshing the medium every 24 hours. Note that ERK inhibition attenuates cell proliferation induced by IGFBP7 down-regulation (p<0.01).
# To further investigate the involvement of ERK in IGFBP7-mediated cell proliferation primary keratinocytes which were transfected with IGFBP7 siRNA were treated with the ERK inhibitor PD98059 (120 μM for 72 hours, while refreshing the medium every 24 hours).
# [2] = test system: primary human keratinocytes; experiment: BrDu incorporation assay (proliferation) in primary keratinocytes; assay type: cell-based
# Experimental: FIGS. 3A-F depict viability and proliferation assays of keratinocytes. […] Data represent mean values±SD of three independent experiments. Asterisk, p<0.01 compared with control cells. FIG. 3B—HaCat cells stably expressing an IGFBP7-specific shRNA or a control shRNA were assessed using the BrDu assay (stable transfection). Data represent mean values±SD of three independent experiments. Asterisk, p<0.01 compared with control cells. FIGS. 3C and D—KRT6a mRNA and protein levels were assessed by qRT-PCR (FIG. 3C) and immunoblotting (FIG. 3D) in HaCat cells stably expressing an IGFBP7-specific shRNA or a control shRNA. FIGS. 3E and F—Primary keratinocytes were transiently transfected with IGFBP7-specific siRNA (IGFBP7) or with control siRNA (control) and assessed using the MTT assay (FIG. 3E; 24 and 48 hours post transfection) and the BrDu assay (FIG. 3F; 24 hours post transfection). […]
# (§1) FIGS. 6A-C depict cell viability and proliferation assays of primary keratinocytes which exogenously express IGFBP7. […] FIGS. 6A-B—Cell viability and proliferation were assessed using the MTT (FIG. 6A) and BrDU (FIG. 6B) assays. FIG. 6C—Apoptosis was quantitated by TUNEL assay. […]
# The incorporation rate of BrdU was determined by Cell Proliferation ELISA BrdU colorimetric kit (Roche, Mannheim, Germany) according to manufacturer's protocol. Absorbance at 450 nm was measured using an ELISA reader. […]
# IGFBP7 = experiment: qRT-PCR of IGFBP7 mRNA in organotypic skin equivalents; assay type: cell-based, human
# Experimental: RNA was extracted from cultured cells using an RNA extraction kit (Roche Mannheim, Germany). cDNA was synthesized from 500 ng of total RNA using the Reverse-iT first strand synthesis kit (ABgene, Epson, UK) and random hexamers. cDNA PCR amplification was carried out using the SYBR Green JumpStart Taq ReadyMix (Sigma-Aldrich, St Louis, Mo., USA) on a M×3000 p/5 p multifilter system (Stratagene, Cedar Creek, Tex., USA) with gene-specific intron-crossing oligonucleotide pairs listed in Table 2 below. To ensure the specificity of the reaction conditions, at the end of the individual runs, the melting temperature (Tm) of the amplified products was measured to confirm its homogeneity. […] Each sample was analyzed in triplicate. For quantification, standard curves were obtained using serially diluted cDNA amplified in the same real-time PCR run. […] After the quantification procedure, the products were resolved by 2.5% agarose gel electrophoresis to confirm that the reaction had amplified DNA fragments of expected size.
# To confirm the physiological relevance of these findings in keratinocyte monolayers, the present inventors suppressed the expression of IGFBP7 by RNA interference in skin organotypic cultures. […] Punch biopsies were also taken at day 7 for RNA extraction, transcribed to cDNA and analyzed by qRT-PCR for IGFBP7 mRNA expression. […]
# [3] = test system: primary human keratinocytes; experiment: MTT assay (cell viability) in primary keratinocytes; assay type: cell-based
# Experimental: (§2) FIGS. 3A-F depict viability and proliferation assays of keratinocytes. […] Data represent mean values±SD of three independent experiments. Asterisk, p<0.01 compared with control cells. FIG. 3B—HaCat cells stably expressing an IGFBP7-specific shRNA or a control shRNA were assessed using the BrDu assay (stable transfection). Data represent mean values±SD of three independent experiments. Asterisk, p<0.01 compared with control cells. FIGS. 3C and D—KRT6a mRNA and protein levels were assessed by qRT-PCR (FIG. 3C) and immunoblotting (FIG. 3D) in HaCat cells stably expressing an IGFBP7-specific shRNA or a control shRNA. FIGS. 3E and F—Primary keratinocytes were transiently transfected with IGFBP7-specific siRNA (IGFBP7) or with control siRNA (control) and assessed using the MTT assay (FIG. 3E; 24 and 48 hours post transfection) and the BrDu assay (FIG. 3F; 24 hours post transfection). Data represent mean values±SD of three independent experiments (Asterisk, p<0.01 compared with control cells).
# as §1
# [4] = test system: primary human keratinocytes; experiment: TUNEL apoptosis assay in primary keratinocytes; assay type: cell-based
# Experimental: FIGS. 4A-C depict apoptosis assays in HaCat or primary keratinocyte cells. FIGS. 4A-B—HaCat cells stably expressing IGFBP7-specific (IGFBP7) or control shRNA (Co) (scrambled control), were exposed to 10 ng/μl of recombinant tumor necrosis factor-alpha (TNF-α) (+) or vehicle (−) 24 hours after transfection. Apoptosis was measured using the TUNEL assay (FIG. 4A) or the Annexin V assay (FIG. 4B). FIG. 4C—Primary keratinocytes were transiently transfected with IGFBP7-specific siRNA (IGFBP7) or with scrambled control siRNA (Co) and exposed to 10 ng/μl of recombinant TNF-α (+) or vehicle (−). Apoptotic activity was assessed by the TUNEL assay. All experiments were repeated three times. Results are provided as mean values±SD. […]
# as §1
# Apoptosis was assessed using the TUNEL kit (Roche, Mannheim, Germany) according to the manufacturer's protocol. […] More than 1,000 cells were counted for each slide and examined under a fluorescent microscope Zeiss Axioscope 2 (Carl Zeiss MicroImaging, Inc., Thornwood, N.Y.). […] Differences in apoptotic activity were considered significant at p-values <0.01 calculated using a standard Student's t-test.
# [5] = test system: three-dimensional organotypic skin equivalents; experiment: H&E staining of organotypic skin equivalents; assay type: cell-based, human; settings: day 14
# Experimental: The present inventors used a three-dimensional organotypic cell culture system to model the role of decreased IGFBP7 expression in the pathogenesis of psoriasis (FIGS. 18 and 19). In this model system, keratinocytes are grown at the air liquid interface on a support consisting of collagen and fibroblasts for up to 2 weeks. During this time, keratinocytes fully differentiate, forming a multilayered, cornified epithelium which faithfully replicates most physiological aspects of normal epidermal biology. The present inventors established the conditions necessary to grow such three-dimensional skin equivalents. Histological and immunohistochemical analyses confirmed the existence of a legitimate differentiation program in these cultures. […] At day 12, the stratum corneum was thickened and desquamation, i.e., detachment of cornified keratinocytes, occurred (FIG. 20).
# To confirm the physiological relevance of these findings in keratinocyte monolayers, the present inventors suppressed the expression of IGFBP7 by RNA interference in skin organotypic cultures. […] Punch biopsies were also taken at day 7 for RNA extraction, transcribed to cDNA and analyzed by qRT-PCR for IGFBP7 mRNA expression. IGFBP7 specific siRNA suppressed IGFBP7 expression to less than 60% of the normal level in skin equivalents as measured at day 7 (data not shown). […]
# HaCat cells = experiment: MTT assay (cell viability) in HaCat cells; assay type: cell-based, human; settings: siRNA, cultured 24 and 72 hours
# Experimental: as §2
# The MTT test is based on the selective ability of living cells to reduce the yellow salt MTT (3-(4,5-dimethylthiazolyl-2)-2,5-diphenyltetrazolium bromide) (Sigma, Aldrich St Louis, Mo., USA) to a purple-blue insoluble formazan precipitate. […] The supernatants were collected and then scanned with an ELISA reader Zenyth 200 (Anthos Labtec, Cambridge, UK) at 560 nm.
# [6] = test system: primary keratinocyte cells; experiment: Effect of rIGFBP7 on differentiation of primary keratinocytes; assay type: cell-based, human; settings: data not shown
# Description: To confirm the involvement of IGFBP7 in the regulation of keratinocyte proliferation and differentiation, the present inventors examined the effect of recombinant human IGFBP7 polypeptide (rIGFBP7) on primary keratinocyte cells.
# [7] = test system: human skin grafted onto beige-SCID mice injected with NK/T cells from psoriatic patients; experiment: Chimeric human-mouse psoriasis model, histology; assay type: in vivo; settings: intralesional, histology two weeks after the treatment
# Experimental: To assess the effect of IGFBP7 on psoriasis, the present inventors used a chimeric mouse model (FIG. 23). The model is based on the use of normal skin from healthy controls that is grafted onto beige-SCID mice. The grafts are then injected with NK/T cells isolated from psoriatic patients (Gilhar et al., 2002).
# In the experimental system used herein, two weeks after NK injection (6 weeks after engraftment) 3 groups of mice were treated with intralesional PBS, topical dexamethasone and intralesional IGFBP7. The effect of the treatment was monitored by histology analysis two weeks after the treatment (8 weeks after engraftment).
# [8] = 1.8 μg/μl rIGFBP7 for 72 hours, then 12 hours in medium lacking rIGFBP7
compound,measurement,setting,value
COc1cccc(-c2cc(=O)c3ccccc3o2)c1N [PD98059],keratinocyte proliferation induced by IGFBP7 down-regulation,[1],prevented the induction of keratinocyte proliferation
"IGFBP7 specific siRNA: siRNA IGFBP7 duplex of SEQ ID NO:32 and SEQ ID NO:33 (Sigma-Proligo) (chain 1 GCUGGUAUCUCCUCUAAGUTT; chain 2 ACUUAGAGGAGAUACCAGCTT; sugars from the 5' end r19 d2, backbone not given here)",cell proliferation (BrDu assay),"[2]; primary keratinocytes, 24 hours post transfection",more viable and proliferative
same,duration of the siRNA effect,"IGFBP7; organotypic skin model, data not shown",at least 7 days
same,IGFBP7 expression relative to normal level,"IGFBP7; skin equivalents, day 7, data not shown",less than 60%
same,cell viability (MTT assay),"[3]; primary keratinocytes, 24 and 48 hours post transfection",more viable and proliferative
same,TNF-α-induced cell apoptosis (TUNEL assay),"[4]; primary keratinocytes transiently transfected, 10 ng/μl recombinant TNF-α",prevented TNF-α-induced cell apoptosis
same,H&E histological changes,[5],"abnormal stratification, absence of granular layer, parakeratosis and marked hyperkeratosis"
same,cell viability (MTT assay),HaCat cells,more viable and proliferative
rIGFBP7: human recombinant IGFBP7 polypeptide (R&D systems Inc. Catalogue No. 1334-B7-025),cell proliferation (BrDu assay),[2]; [8],decrease in cell proliferation
same,cell differentiation,[6],lacked significant effect on cell differentiation
same,viable cell counts (MTT assay),[3]; [8],decrease in viable cell counts
same,keratinocyte apoptosis (TUNEL assay),"[4]; 1.8 μg/μl rIGFBP7 for 72 hours, then 12 hours in medium lacking rIGFBP7, TNF-α-mediated",increase in keratinocyte apoptosis
same,mice with features of psoriasis on histology,[7],one animal only showed features of psoriasis on histology
same,mice with full recovery on histology,[7],three mice showed full recovery
same,mice with partial recovery on histology,[7],one mouse recovered partially (50%)
same,mononuclear infiltrating cells in the dermis,[7],could still be seen in the dermis albeit in smaller numbers
